Experiment: xn = mol fraction of the nth substance listed
Settings: Liquid, Vibrating tube method

CCCCCCCC [octane] + CCO
mass density [kg/m3]
Settings	100 kPa	500 kPa	5000 kPa	10000 kPa	15000 kPa	20000 kPa	25000 kPa	30000 kPa	35000 kPa	40000 kPa
293.15 K, x1 = 0.2492	743.9	744.3	748.2	752.3	756.2	759.9	763.4	766.8	770	773.2
293.15 K, x1 = 0.4999	722.3	722.6	726.5	730.6	734.4	738.1	741.6	744.9	748.1	751.2
293.15 K, x1 = 0.7503	709.6	709.9	713.7	717.7	721.5	725.1	728.6	731.9	735	738.1
303.15 K, x1 = 0.2492	735.3	735.7	739.8	744.2	748.3	752.2	755.9	759.5	762.9	766.2
303.15 K, x1 = 0.4999	713.7	714.1	718.3	722.6	726.7	730.6	734.2	737.7	741.1	744.3
303.15 K, x1 = 0.7503	701.2	701.5	705.6	709.9	713.9	717.8	721.4	724.9	728.2	731.4
313.15 K, x1 = 0.2492	726.5	726.9	731.3	736	740.4	744.5	748.4	752.1	755.7	759.1
313.15 K, x1 = 0.4999	705	705.4	709.8	714.5	718.8	722.9	726.8	730.5	734	737.4
313.15 K, x1 = 0.7503	692.6	693	697.4	702	706.3	710.3	714.1	717.8	721.2	724.6
323.15 K, x1 = 0.2492	717.4	717.9	722.6	727.6	732.2	736.6	740.7	744.6	748.4	752
323.15 K, x1 = 0.4999	696	696.4	701.2	706.1	710.8	715.1	719.2	723.1	726.8	730.4
323.15 K, x1 = 0.7503	683.8	684.2	688.9	693.8	698.4	702.7	706.8	710.6	714.2	717.8
333.15 K, x1 = 0.2492	708.2	708.6	713.7	719.1	724	728.6	733	737.1	741	744.8
333.15 K, x1 = 0.4999	686.8	687.3	692.4	697.7	702.7	707.3	711.6	715.7	719.6	723.4
333.15 K, x1 = 0.7503	674.8	675.3	680.4	685.6	690.5	695.1	699.3	703.4	707.2	710.9
353.15 K, x1 = 0.2492	–	689	695	701.1	706.8	712	716.9	721.5	725.8	730
353.15 K, x1 = 0.4999	–	667.9	674	680.2	685.8	691.1	695.9	700.5	704.8	709
353.15 K, x1 = 0.7503	–	656.6	662.6	668.7	674.3	679.5	684.3	688.7	693	697.1
373.15 K, x1 = 0.2492	–	667.6	674.8	682	688.6	694.6	700.1	705.2	710	714.6
373.15 K, x1 = 0.4999	–	647.2	654.4	661.7	668.3	674.3	679.8	684.9	689.7	694.3
373.15 K, x1 = 0.7503	–	637	644.1	651.2	657.7	663.6	669	674	678.7	683.2

Reference: the NIST ThermoML archive (doi:10.1016/j.jct.2016.04.014)
